Assay results reported in ChEMBL document CHEMBL5729407, “Substituted piperidine compounds and their use” (2022).

Assays:
Orexin receptor type 2 = molecular target: T1, Orexin receptor type 2 (Homo sapiens, UniProt O43614); experiment: (§1) Evaluation of Activity for OX1R and OX2R: HEK293 (human embryonic kidney 293) cells with forced expression of human OX1R (hOX1R) or human OX2R (hOX2R) were seeded in a 384-well microplate (Greiner) at 10,000 per well and cultured for 1 day in high-glucose-DMEM (FujiFilm Corp.—Wako Pure Chemical Industries, Ltd.) containing added 10% FBS ([…]) and 1% Penicillin-Streptomycin (FujiFilm Corp.—Wako Pure Chemical Industries, Ltd.). After removing the medium, 40 μL of assay buffer (20 mM HEPES (Sigma-Aldrich Japan, KK.), Hanks' balanced salt solution (Gibco), 0.1% BSA (Sigma-Aldrich Japan, KK.), 0.1% Pluronic F-127 (Invitrogen)) containing Calcium 4 dye (Molecular Device Corporation) and 2.5 mM probenecid (Sigma-Aldrich Japan, KK.) were added, and the plate was incubated for 60 minutes. After further adding 20 μL of assay buffer, 20 μL of assay buffer containing the test compound was added and reaction was initiated. Change in intracellular calcium ion concentration during the reaction was measured based on the fluorescence intensity ratio in terms of the fluorescence value with wavelength excitation at 480 nm and detection at 540 nm, using FDSS7000 (Hamamatsu Photonics, K.K.). The test compound was dissolved in DMSO to 10 mM, and diluted with assay buffer to a final concentration of from 3×10−11 M to 1×10−7 M (DMSO final concentration of 0.1%). […]; format: cell-based
T1 sequence (O43614 whole entry): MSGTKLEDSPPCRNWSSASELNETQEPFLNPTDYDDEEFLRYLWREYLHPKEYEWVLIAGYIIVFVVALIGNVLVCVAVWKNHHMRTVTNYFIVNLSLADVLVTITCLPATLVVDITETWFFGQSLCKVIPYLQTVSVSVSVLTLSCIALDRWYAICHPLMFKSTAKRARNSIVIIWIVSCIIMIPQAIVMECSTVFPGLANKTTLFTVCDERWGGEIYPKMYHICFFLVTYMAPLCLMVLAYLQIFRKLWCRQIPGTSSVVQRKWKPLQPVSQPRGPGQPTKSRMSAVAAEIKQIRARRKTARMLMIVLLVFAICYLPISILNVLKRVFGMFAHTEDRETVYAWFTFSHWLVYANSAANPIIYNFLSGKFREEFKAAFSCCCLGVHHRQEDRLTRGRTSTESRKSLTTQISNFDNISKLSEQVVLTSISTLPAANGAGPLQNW

[1] = molecular target: T2, Orexin/Hypocretin receptor type 1 (Homo sapiens, UniProt O43613); experiment: as §1; format: cell-based
T2 sequence (O43613 whole entry): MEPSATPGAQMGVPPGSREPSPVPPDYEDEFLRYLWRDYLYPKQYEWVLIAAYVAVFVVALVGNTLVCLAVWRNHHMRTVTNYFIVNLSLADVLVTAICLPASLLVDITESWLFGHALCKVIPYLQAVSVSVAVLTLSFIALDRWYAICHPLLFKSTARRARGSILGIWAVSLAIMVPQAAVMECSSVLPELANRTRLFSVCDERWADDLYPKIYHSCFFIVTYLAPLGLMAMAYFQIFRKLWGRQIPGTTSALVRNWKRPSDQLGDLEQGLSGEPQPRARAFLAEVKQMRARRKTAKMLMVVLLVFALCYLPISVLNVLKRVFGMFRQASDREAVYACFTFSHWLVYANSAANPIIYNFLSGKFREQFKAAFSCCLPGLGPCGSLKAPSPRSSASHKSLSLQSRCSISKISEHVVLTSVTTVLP

Work on CO[C@@H]1CN(c2ncc(F)cn2)CC[C@@H]1[C@@H]1C[C@H]2CC[C@@H](C1)N2[C@@H](C(N)=O)C(C)C yielded an EC50 (Orexin receptor type 2) of 3.08 nM and an EC50 [1] of over 100 nM.
